Source: patent publication US7994159B2, “c-Kit kinase inhibitor” (Eisai R&D Management Co., Ltd., priority 2003, dated 2011)
Values belong to the compound of their own block, whether it stands above or below them.

How the values were obtained:
[1] = system: small cell lung cancer cell line H-526 expressing c-Kit kinase; experiment: Effect on proliferation of H-526 cells stimulated by SCF (Cell Counting Kit-8); assay type: cell-based; settings: Homo sapiens, NCI-H526, 7th day after addition of test substance, read-out: IC50, concentration required for 50% inhibition of the cell proliferation stimulated by SCF
Experimental: H-526 cells were cultured in a 5% CO2 incubator (37° C.) using an RPMI1640 medium (Nissui Pharmaceutical Co., Ltd.) containing 10% FCS (purchased from Cell Culture Technologies). After culturing, H-526 cells were washed with PBS three times and were suspended in an RPMI1640 medium containing 0.1% BSA (Sigma Corporation) (hereinafter abbreviated as “BSA-RPMI1640”) at 1.0×10^5 cells/ml. […] On the 7th day after addition of the test substance, 20 μl of Cell Counting Kit-8 (Dojin Laboratories) was added to the well and was cultured in a 5% CO2 incubator (37° C.) for about 2 hours. After color development, the absorbance of each well was determined using a MTP-32 plate reader (Colona Electric Co., Ltd.) at a measuring wavelength of 450 nm and at a reference wavelength of 660 nm. The absorbance of each well was subtracted by the absorbance of the well without addition of SCF, and then the ratio of the absorbance of the well with addition of the test substance to the ratio of the absorbance of the well without addition of the test substance was determined. This ratio was used to calculate the concentration of the test substance required for 50% inhibition of the cell proliferation (IC50).

H-526 tumor = experiment: Growth of H-526 tumor transplanted to nude mice; assay type: in vivo, Balb/c nu/nu mice; settings: oral, twice daily for 14 days, FIG. 2
Experimental: H-526 cells were cultured in a 5% CO2 incubator (37° C.) using an RPMI1640 medium containing 10% FCS. After the culture medium was collected, H-526 cells were washed with PBS twice and were suspended in PBS at 5.0×10^7 cells/ml. This cell suspension (0.1 ml) was transplanted to the subcutaneous parts of the right flank of 6-week female Balb/c nu/nu mice (purchased from Charles River Laboratories, Inc.). After transplantation, administration of a test substance was started at the point the tumor volume reached approximately 150 mm^3, and thus, oral administration was conducted twice daily for a period of 14 days. The test substance was suspended in a 0.5% methylcellulose solution (Wako Pure Chemical Industries Co., Ltd.) so as to give a dose of 0.1 ml/10 g body weight.
The tumor volume was measured with a caliper twice weekly during the administration period. The long and short diameters of the tumor were measured with a caliper and the tumor volume was calculated according to the equation: ½×long diameter×short diameter×short diameter. Here, the experiment was conducted in a vehicle control group of 10 animals (solvent-administered group) as well as in a test substance administered group of 5 animals.

c-Kit kinase [2] = biological target: T1, c-Kit kinase (Homo sapiens, UniProt P10721); experiment: c-Kit kinase phosphorylation in H-526 tumor transplanted to nude mice (immunoblot); assay type: in vivo, Balb/c nu/nu mice; set-up: Compound 1 reduced phosphorylated c-Kit in tumor tissue when administered at 30 or 100 mg/kg; from tissue; host or cells: H-526 tumour grown subcutaneously in female Balb/c nu/nu mice; settings: H-526 tumor in nude mice, FIG. 3
Experimental: 0.1 ml of a H-526 cell suspension prepared at a concentration of 5.0×10^7 cells/ml, was transplanted to the subcutaneous parts of the right latus of 6-week female Balb/c nu/nu mice (purchased from Charles River Laboratories, Inc.). The animals were then divided into a vehicle control group (solvent-administered group) and a test substance administered group at the point the tumor volume reached 300-1000 mm^3: the test substance was administered to the latter group. […] After centrifugation, the supernatant was protein quantified, and a 3×SDS sample loading buffer was added to prepare a cell lysate sample. Subsequently, the cell lysate was heat-treated at 94° C. for 10 minutes and cryopreserved at -20° C. […] After electrophoresis, the sample was transferred to a PVDF membrane (Amersham Pharmacia Biotech Inc.) for 3 hours. In order to assay phosphorylated c-Kit, c-Kit and β-actin, immunoblot was performed using a phospho-c-kit ([…]) antibody (Cell Signaling Technologies, Inc.), an anti c-Kit antibody (Cell Signaling Technologies, Inc.) and an anti β-actin antibody (Sigma) as a primary antibody and an anti-rabbit IgG, HRP-linked antibody (Cell Signaling Technologies, Inc.) as a secondary antibody. After the membrane was washed, it was developed with a Super Signal (Pierce Biotechnology, Inc.).

c-Kit kinase [3] = biological target: T1, c-Kit kinase; experiment: c-Kit kinase phosphorylation by SCF stimulation in H-526 cells (immunoblot, phospho-c-kit Tyr719); assay type: cell-based; set-up: in the small cell lung cancer cell line H-526 expressing c-Kit kinase; host or cells: H-526 small cell lung cancer cells; settings: 1 hour test substance then 5 minutes SCF, FIG. 1
Experimental: H-526 cells were cultured in a 5% CO2 incubator (37° C.) using an RPMI1640 medium containing 10% FCS. After culturing, H-526 cells were washed with PBS three times and were suspended in a BSA-RPMI1640 medium at 5.0×10^5 cells/ml. Each 1 ml of this cell suspension was inoculated to the well of a 24-well plate and the suspension was cultured in a 5% CO2 incubator (37° C.) for 6 hours. After 6-hours culturing, 1 ml of BSA-RPMI1640 containing a diluted test substance was added to each well and culturing was carried out in a 5% CO2 incubator (37° C.) for 1 hour. […] After 5-minutes culturing, the cells were washed with PBS and 100 μl of SDS sample loading buffer was added to the cells to prepare a cell lysate sample. After the sample was heat-treated at 94° C. for 10 minutes, it was cryopreserved at -20° C. […] After electrophoresis, the sample was transferred to a PVDF membrane (Amersham Pharmacia Biotech Inc.) for 3 hours. The transferred membrane was subjected to immunoblot using a phospho-c-kit ([…]) antibody (Cell Signaling Technology Inc.) as a primary antibody and an anti-rabbit IgG, HRP-linked antibody (Cell Signaling Technology Inc.) as a secondary antibody. After the membrane was washed, it was developed with a Super Signal (Pierce Biotechnology, Inc.).

T1 sequence (P10721 26-976): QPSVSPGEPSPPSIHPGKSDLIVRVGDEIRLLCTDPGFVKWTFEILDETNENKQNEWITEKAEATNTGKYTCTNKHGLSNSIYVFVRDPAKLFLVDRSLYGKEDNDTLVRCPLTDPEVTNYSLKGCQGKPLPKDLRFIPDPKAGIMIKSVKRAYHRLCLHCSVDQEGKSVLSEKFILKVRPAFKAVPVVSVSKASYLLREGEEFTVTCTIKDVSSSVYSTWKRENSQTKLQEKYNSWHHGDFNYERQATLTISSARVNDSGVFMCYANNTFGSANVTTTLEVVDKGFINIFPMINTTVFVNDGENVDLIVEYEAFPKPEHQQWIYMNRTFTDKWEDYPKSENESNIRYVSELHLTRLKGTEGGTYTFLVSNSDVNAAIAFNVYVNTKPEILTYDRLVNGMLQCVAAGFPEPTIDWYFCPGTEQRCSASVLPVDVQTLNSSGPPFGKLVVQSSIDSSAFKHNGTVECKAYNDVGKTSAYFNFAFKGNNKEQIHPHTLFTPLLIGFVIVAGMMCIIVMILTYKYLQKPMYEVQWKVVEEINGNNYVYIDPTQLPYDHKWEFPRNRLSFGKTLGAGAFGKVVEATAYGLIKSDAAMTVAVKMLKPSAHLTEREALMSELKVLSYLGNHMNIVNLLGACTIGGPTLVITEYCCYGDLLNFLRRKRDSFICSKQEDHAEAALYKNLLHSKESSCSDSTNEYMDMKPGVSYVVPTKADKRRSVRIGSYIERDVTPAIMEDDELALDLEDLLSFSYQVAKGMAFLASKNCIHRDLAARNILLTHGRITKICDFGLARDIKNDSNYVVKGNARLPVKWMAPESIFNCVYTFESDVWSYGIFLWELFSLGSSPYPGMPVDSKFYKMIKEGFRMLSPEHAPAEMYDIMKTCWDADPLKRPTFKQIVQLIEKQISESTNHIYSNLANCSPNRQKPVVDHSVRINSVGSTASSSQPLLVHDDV

- IC50 [1]: 12.8 nM
SMILES: CCNC(=O)Nc1ccc(Oc2ccnc3cc(OC)c(C(N)=O)cc23)cc1Cl [Compound 2, 4-(3-Chloro-4-(ethylaminocarbonyl)aminophenoxy)-7-methoxy-6-quinolinecarboxamide]

- phosphorylated c-Kit in tumor tissue (c-Kit kinase [2]; 160 mg/kg): partially inhibited phosphorylation
SMILES: Cc1ccc(NC(=O)c2ccc(CN3CCN(C)CC3)cc2)cc1Nc1nccc(-c2cccnc2)n1 [STI571, reference compound]
- anti-tumor effect on nude mouse transplanted H-526 tumor (H-526 tumor; 160 mg/kg): little anti-tumor effect

- IC50 [1]: 214 nM
SMILES: CONC(=O)c1cc2c(Oc3ccc(NC(=O)NC4CC4)c(Cl)c3)ccnc2cc1OC [Compound 3, N6-Methoxy-4-(3-chloro-4-(((cyclopropylamino)carbonyl)amino)phenoxy)-7-methoxy-6-quinolinecarboxamide]

- IC50 [1]: 9.36 nM
- c-Kit and β-actin in tumor tissue (c-Kit kinase [2]; 30 or 100 mg/kg): remained unchanged
- phosphorylated c-Kit in tumor tissue (c-Kit kinase [2]; 30 or 100 mg/kg): completely inhibited phosphorylation
SMILES: COc1cc2nccc(Oc3ccc(NC(=O)NC4CC4)c(Cl)c3)c2cc1C(N)=O [Compound 1, 4-(3-Chloro-4-(cyclopropylaminocarbonyl)aminophenoxy)-7-methoxy-6-quinolinecarboxamide]
- suppression of c-Kit kinase phosphorylation in the presence of SCF (c-Kit kinase [3]): suppressed the c-Kit kinase phosphorylation that would take place in the presence of SCF in a concentration-dependent manner
- growth of nude mouse transplanted H-526 tumor (tumor volume) (H-526 tumor): suppressed the growth of the nude mouse transplanted H-526 tumor in a dose-dependent manner

- IC50 [1]: 56.3 nM
SMILES: CCNC(=O)Nc1ccc(Oc2ccnc3cc(OC)c(C(=O)NOC)cc23)cc1Cl [Compound 4, N6-Methoxy-4-(3-chloro-4-(((ethylamino)carbonyl)amino)phenoxy)-7-methoxy-6-quinolinecarboxamide]
